Our source for the IC50 and viability, T/C values is PubChem BioAssay AID1845199 (Molecular Pharmacology Branch, DTP, NCI, 2023).

Molecules are shown by their SMILES. Values joined by “and” are separate entries in the source; they are usually repeats but may differ in a detail not shown here. Equal values may be shown once.

The subject of this experiment is 556581-035-R-J1 tumor spheroid viability, % test/control. The experiment in a line: Anticancer human tumor 556581-035-R-J1 patient-derived ovarian carcinoma cell line growth inhibition. The note with it: spheroids with HUVEC and MSC; for viability, T/C: stronger effect = lower value. In a few lines:
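Complex spheroids of malignant cells with endothelial cells and mesenchymal stem cells; agents alone or combined, from near clinical Cmax (or 10 microM if unknown) down in half-log steps, 0.25% DMSO final.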
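Note: spheroids exposed to compounds for 7 days before viability read.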

Take `CC1COCCN1c1cc(-c2ccnn2C)c2ccnc(-c3ccn[nH]3)c2n1` (stereo unspecified) + COc1cc2c(cc1O)CCNC21CSC2c3c(OC(C)=O)c(C)c4c(c3C(COC1=O)N1C(O)C3Cc5cc(C)c(OC)c(O)c5C(C21)N3C)OCO4: the IC50 is, setting by setting: (curve of first compound, second compound 30 pM) 0.786 µM; (curve of first compound, second compound 94.9 pM) 0.426 µM; (curve of first compound, second compound 0.0003 µM) 0.0592 µM; (curve of first compound, second compound 0.000949 µM) < 0.0316 µM; (curve of first compound, second compound 0.003 µM) < 0.0316 µM. The viability, T/C reads like this: (second compound 30 pM, first compound 0.0316 µM) 93.9%; (second compound 30 pM, first compound 0.1 µM) 74.6%; (second compound 30 pM, first compound 0.316 µM) 59.1%; (second compound 30 pM, first compound 1 µM) 48.5%; (second compound 30 pM, first compound 3.16 µM) 38.2%; (second compound 30 pM, first compound 10 µM) 34.4%. Besides, the viability, T/C is 73.7% (second compound 94.9 pM, first compound 0.0316 µM); 62.5% (second compound 94.9 pM, first compound 0.1 µM); 51.8% (second compound 94.9 pM, first compound 0.316 µM); 44.2% (second compound 94.9 pM, first compound 1 µM); 38% (second compound 94.9 pM, first compound 3.16 µM); 34.4% (second compound 94.9 pM, first compound 10 µM). Also, the viability, T/C was 53.6% (second compound 0.0003 µM, first compound 0.0316 µM); 45.7% (second compound 0.0003 µM, first compound 0.1 µM); 43.1% (second compound 0.0003 µM, first compound 0.316 µM); 43.8% (second compound 0.0003 µM, first compound 1 µM); 37.6% (second compound 0.0003 µM, first compound 3.16 µM); 32.3% (second compound 0.0003 µM, first compound 10 µM). Besides, the viability, T/C is 7.45% (second compound 0.000949 µM, first compound 0.0316 µM); 4.92% (second compound 0.000949 µM, first compound 0.1 µM); 5.53% (second compound 0.000949 µM, first compound 0.316 µM); 6.39% (second compound 0.000949 µM, first compound 1 µM); 3.31% (second compound 0.000949 µM, first compound 3.16 µM); 0.59% (second compound 0.000949 µM, first compound 10 µM). Moreover, the viability, T/C is, setting by setting: (second compound 0.003 µM, first compound 0.0316 µM) 0.82%; (second compound 0.003 µM, first compound 0.1 µM) 0.83%; (second compound 0.003 µM, first compound 0.316 µM) 1.19%; (second compound 0.003 µM, first compound 1 µM) 0.43%; (second compound 0.003 µM, first compound 3.16 µM) 0.43%; (second compound 0.003 µM, first compound 10 µM) 0.72%.
As for `[2H]c1nc(C)nc([2H])c1-c1cc(NC[C@@H](C)c2cccc3c(C(=O)NC)ccnc23)ncn1` + Cn1nnc2c(C(N)=O)ncn2c1=O, the IC50 was > 10 µM (curve of first compound, second compound 1 µM); > 10 µM (curve of first compound, second compound 3.16 µM); > 10 µM (curve of first compound, second compound 10 µM); > 10 µM (curve of first compound, second compound 31.6 µM); > 10 µM (curve of first compound, second compound 100 µM). In addition, the viability, T/C is, setting by setting: (second compound 1 µM, first compound 0.0316 µM) 111%; (second compound 1 µM, first compound 0.1 µM) 111%; (second compound 1 µM, first compound 0.316 µM) 106%; (second compound 1 µM, first compound 1 µM) 112%; (second compound 1 µM, first compound 3.16 µM) 108%; (second compound 1 µM, first compound 10 µM) 112%. The viability, T/C was 98.7% (second compound 3.16 µM, first compound 0.0316 µM); 104% (second compound 3.16 µM, first compound 0.1 µM); 106% (second compound 3.16 µM, first compound 0.316 µM); 115% (second compound 3.16 µM, first compound 1 µM); 119% (second compound 3.16 µM, first compound 3.16 µM); 113% (second compound 3.16 µM, first compound 10 µM). Moreover, the viability, T/C reads like this: (second compound 10 µM, first compound 0.0316 µM) 105%; (second compound 10 µM, first compound 0.1 µM) 103%; (second compound 10 µM, first compound 0.316 µM) 115%; (second compound 10 µM, first compound 1 µM) 112%; (second compound 10 µM, first compound 3.16 µM) 113%; (second compound 10 µM, first compound 10 µM) 115%. The viability, T/C is, setting by setting: (second compound 31.6 µM, first compound 0.0316 µM) 116%; (second compound 31.6 µM, first compound 0.1 µM) 109%; (second compound 31.6 µM, first compound 0.316 µM) 115%; (second compound 31.6 µM, first compound 1 µM) 119%; (second compound 31.6 µM, first compound 3.16 µM) 116%; (second compound 31.6 µM, first compound 10 µM) 112%. The viability, T/C is 115% (second compound 100 µM, first compound 0.0316 µM); 114% (second compound 100 µM, first compound 0.1 µM); 116% (second compound 100 µM, first compound 0.316 µM); 114% (second compound 100 µM, first compound 1 µM); 108% (second compound 100 µM, first compound 3.16 µM); 114% (second compound 100 µM, first compound 10 µM).
`CC(C)n1c(=O)n(C)c2cnc3cc(F)c(-c4ccc(OCCCN5CCCCC5)nc4)cc3c21`: the viability, T/C is, setting by setting: (compound 0.0316 µM) 104% and 103% and 102%; (compound 0.1 µM) 109% and 106% and 112%; (compound 0.316 µM) 95.9% and 108% and 103%; (compound 1 µM) 105% and 114% and 101%; (compound 3.16 µM) 100% and 99.6% and 95.5%; (compound 10 µM) 74.3% and 73.2% and 69%. Further, the IC50 (curve of compound) was > 10 µM.
Regarding `COc1cc(C)[nH]c(=O)c1CN1CCc2c(Cl)cc(C(OC)C3COC3)c(Cl)c2C1=O` (stereo unspecified), the viability, T/C is 103% and 105% and 98.8% (compound 0.0316 µM); 110% and 101% and 105% (compound 0.1 µM); 107% (2×) and 99.8% (compound 0.316 µM); 111% and 108% and 102% (compound 1 µM); 114% and 107% and 96.9% (compound 3.16 µM); 106% and 99.4% and 98.3% (compound 10 µM). Where the note is “curve of compound”, the IC50 is > 10 µM.
For `Cc1cc(C)c(CNC(=O)c2cc(-c3ccc(CN4CCOCC4)cc3)cc3c2cnn3C2CCCC2)c(=O)[nH]1`, the viability, T/C reads like this: (compound 0.0316 µM) 103% and 104% and 86.6%; (compound 0.1 µM) 108% and 103% and 97.3%; (compound 0.316 µM) 112% and 108% and 97.3%; (compound 1 µM) 115% and 102% and 120%; (compound 3.16 µM) 104% and 105% and 107%; (compound 10 µM) 89.3% (2×) and 93.4%. In addition, where the note is “curve of compound”, the IC50 is > 10 µM.
